Results reported in patent US10221163B2 (priority 2015, dated 2019).
Like-named read-outs stand apart in the source and are kept apart here.

Tests used:
[1] = system: Klebsiella pneumoniae expressing VIM-1 (IHMA599644); assay type: cell-based; details: for Klebsiella pneumoniae expressing VIM-1 (IHMA599644) MITC95: with imipenem 1 μg/ml, 95% inhibition of bacterial growth; for Klebsiella pneumoniae MITC95: VIM-1 strain IHMA599644, with imipenem 1 μg/ml, 95% inhibition of growth
Method in brief: (§1)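 Imipenem 1 μg/ml + inhibitor; MBL-expressing clinical strains in 1.1×CAMHB, inoculum from saline suspension diluted 1:100; 35° C, 22–24 h; absorbance read-out.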

[2] = system: Escherichia coli expressing NDM-1 (CLB30005, CLB30016); assay type: cell-based; details: with imipenem 1 μg/ml; for Escherichia coli expressing NDM-1 (CLB30016) MITC95: 95% inhibition of bacterial growth; for Escherichia coli MITC95: NDM-1 strain, 95% inhibition of growth
Method in brief: as §1

[3] = system: Serratia marcescens expressing IMP-1 (CL5741); assay type: cell-based; details: for Serratia marcescens expressing IMP-1 (CL5741) MITC95: with imipenem 1 μg/ml, 95% inhibition of bacterial growth; for Serratia marcescens MITC95: IMP-1 strain CL5741, with imipenem 1 μg/ml, 95% inhibition of growth
Method in brief: as §1

IMP-1 = IMP-1 (Serratia marcescens, UniProt P52699); experiment: biochemical; assay type: biochemical; details: fluorescence assay, CCF2-FA substrate, 2 pM enzyme, 2 hours at 25° C.; read-out: IMP-1 IC50
Chain of IMP-1 (P52699 whole entry, looked up, species assumed): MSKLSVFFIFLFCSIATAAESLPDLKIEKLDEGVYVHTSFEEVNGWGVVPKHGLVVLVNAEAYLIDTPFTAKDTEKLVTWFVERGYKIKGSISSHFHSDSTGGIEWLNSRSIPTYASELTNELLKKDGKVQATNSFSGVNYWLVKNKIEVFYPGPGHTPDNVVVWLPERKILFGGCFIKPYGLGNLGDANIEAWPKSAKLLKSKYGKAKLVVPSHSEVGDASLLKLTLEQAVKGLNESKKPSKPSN
Method in brief: (§2)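 Class B activity is measured in the presence of compound by fluorescence with CCF2-FA after a 2-hour incubation at 25° C. IC50 is taken from a 4-parameter fit of semi-logarithmic dose-response data.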

NDM-1 = NDM-1 (Klebsiella pneumoniae, UniProt C7C422); experiment: biochemical; assay type: biochemical; details: fluorescence assay, CCF2-FA substrate, 1 pM enzyme, 2 hours at 25° C.; read-out: NDM-1 IC50
Chain of NDM-1 (C7C422 whole entry, looked up, species assumed): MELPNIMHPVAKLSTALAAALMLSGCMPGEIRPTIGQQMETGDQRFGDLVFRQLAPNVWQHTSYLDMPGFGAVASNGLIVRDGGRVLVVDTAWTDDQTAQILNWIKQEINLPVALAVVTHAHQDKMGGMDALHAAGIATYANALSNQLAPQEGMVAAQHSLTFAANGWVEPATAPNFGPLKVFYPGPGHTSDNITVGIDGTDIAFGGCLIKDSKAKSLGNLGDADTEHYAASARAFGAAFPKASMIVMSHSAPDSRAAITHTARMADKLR
Method in brief: as §2

[4] = system: Pseudomonas aeruginosa efflux+ (MB9798), IMP-1; assay type: cell-based; parameters: Concentration of metallo-β-lactamase inhibitor which restores susceptibility of efflux + (MB9798) strain to imipenem: unit not given here; details: C, D serine β-lactamase inhibitor closely related to relebactam; for P. aeruginosa expressing IMP-1, efflux + (MB9798) MITC95: concentration restoring susceptibility to imipenem at 2 μg/mL in the presence of a class A
Method in brief: (§3)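 Steps: add fixed imipenem and/or ceftazidime (usually CLSI breakpoint) and fixed AmpC-directed class A/C inhibitor to microbroth MIC wells; titrate MBL inhibitor; record concentration regaining susceptibility for each PAO1-derived strain; divide efflux+ by efflux− value.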

VIM-1 = VIM-1 (Pseudomonas aeruginosa (strain ATCC 15692 / DSM 22644 / CIP 104116 / JCM 14847 / LMG 12228 / 1C / PRS 101 / PAO1), UniProt A0A0F7KYQ8); experiment: biochemical; details: CCF2-FA substrate, 30 pM enzyme, 2 hours at 25° C.
Method in brief: as §2

[5] = system: Pseudomonas aeruginosa efflux− (MB9799), IMP-1; assay type: cell-based; details: C, D serine β-lactamase inhibitor closely related to relebactam; for P. aeruginosa expressing IMP-1, efflux − (MB9799) MITC95: concentration restoring susceptibility to imipenem at 2 μg/mL in the presence of a class A
Method in brief: as §3

[6] = system: Pseudomonas aeruginosa MB9798 vs MB9799
Method in brief: as §3

[7] = ratio MITC95 PA_9798/MITC95 PA_9799
[8] = fluorescence assay, read-out: VIM-1 IC50

Compound | Klebsiella pneumoniae expressing VIM-1 (IHMA599644) MITC95 [1] | Escherichia coli expressing NDM-1 (CLB30016) MITC95 [2] | Serratia marcescens expressing IMP-1 (CL5741) MITC95 [3] | IC50 (IMP-1) | IC50 (NDM-1) | P. aeruginosa expressing IMP-1, efflux + (MB9798) MITC95 [4] | IC50 (VIM-1; VIM-1 IC50, fluorescence assay) | P. aeruginosa expressing IMP-1, efflux − (MB9799) MITC95 [5] | Efflux ratio [6, 7] | IC50 (VIM-1; [8]) | Klebsiella pneumoniae MITC95 [1] | Escherichia coli MITC95 [2] | Serratia marcescens MITC95 [3] | Concentration of metallo-β-lactamase inhibitor which restores susceptibility of efflux + (MB9798) strain to imipenem ([4]; efflux+ MB9798, imipenem at 2 μg/mL, in the presence of a class A) | Concentration of metallo-β-lactamase inhibitor which restores susceptibility of efflux − (MB9799) strain to imipenem ([5]; efflux− MB9799, imipenem at 2 μg/mL, in the presence of a class A) | Efflux ratio ([6]; fold difference between efflux+ (MB9798) and efflux− (MB9799) strains, imipenem at 2 μg/mL)
Nc1nc2c(-c3ccc(S(=O)(=O)N[C@@H]4CNC[C@H]4O)c(S(N)(=O)=O)c3-c3nnn[nH]3)cccc2[nH]1 [Example 171, 4-(2-amino-1H-benzo[d]imidazol-4-yl)-N^1-((3R,4R)-4-hydroxypyrrolidin-3-yl)-3-(1H-tetrazol-5-yl)benzene-1,2-disulfonamide] | 3.125 µM | 0.7813 µM | 1.563 µM | 1.39 nM | 0.125 nM | 0.7813 µM | 0.506 nM | 1.563 µM | 0.50 |  |  |  |  |  |  | 
CNc1ccc(-c2ccc(S(=O)(=O)N[C@@H]3CCNC3)c(S(N)(=O)=O)c2-c2nn[nH]n2)cn1 [Example 242] | 1.563 µM | 0.7813 µM | 0.7813 µM | 0.157 nM | 0.0611 nM | 0.7813 µM |  | 0.7813 µM | 1.00 | 0.0841 nM |  |  |  |  |  | 
NC[C@@H](O)CNS(=O)(=O)c1ccc(-c2cccc3[nH]c(N)nc23)c(-c2nn[nH]n2)c1S(N)(=O)=O [Example 298, (R)-4-(2-amino-1H-benzo[d]imidazol-4-yl)-N1-(3-amino-2-hydroxypropyl)-3-(2H-tetrazol-5-yl)-benzene-1,2-disulfonamide] |  |  |  | 0.671 nM | 0.0573 nM | 0.3555 µM |  | 0.5156 µM | 0.69 | 0.135 nM | 1.031 µM | 0.2786 µM | 0.4531 µM |  |  | 
Nc1nc2c(-c3ccc(S(=O)(=O)N4CCNCC4)c(S(N)(=O)=O)c3-c3nn[nH]n3)cccc2o1 [Example 159, 3-(2-aminobenzo[d]oxazol-4-yl)-6-(piperazin-1-ylsulfonyl)-2-(2H-tetrazol-5-yl)benzenesulfonamide] | 3.125 µM | 1.563 µM | 1.563 µM | 1.29 nM | 0.195 nM | 3.125 µM |  | 1.563 µM | 2.00 | 0.51 nM |  |  |  |  |  | 
C[N+]1(C)CC[C@H](NS(=O)(=O)c2ccc(-c3cccc4[nH]c(N)nc34)c(-c3nn[n-]n3)c2S(N)(=O)=O)C1 [Example 166, (S)-5-(6-(2-amino-1H-benzo[d]imidazol-4-yl)-3-(N-(1,1-dimethylpyrrolidin-1-ium-3-yl)sulfamoyl)-2-sulfamoylphenyl)tetrazol-2-ide] | 3.125 µM | 0.7813 µM | 1.563 µM | 0.82 nM | 0.0581 nM | 1.563 µM | […] | 1.563 µM | […] |  |  |  |  |  |  | 
NC[C@@H](O)CNS(=O)(=O)c1ccc(-c2cccc3[nH]cnc23)c(-c2nn[nH]n2)c1S(N)(=O)=O [Example 301, (R)-4-(1H-benzo[d]imidazol-4-yl)-N1-(3-amino-2-hydroxypropyl)-3-(2H-tetrazol-5-yl)-benzene-1,2-disulfonamide] |  |  |  | 0.129 nM | 0.0163 nM | 0.7813 µM |  | 0.7813 µM | 1.00 | 0.0528 nM | 3.125 µM | 1.563 µM | 0.3906 µM |  |  | 
NCCNS(=O)(=O)c1ccc(-c2cccc3[nH]c([C@@H](N)CO)nc23)c(-c2nn[nH]n2)c1S(N)(=O)=O [Example 331, (R)-4-(2-(1-amino-2-hydroxyethyl)-1H-benzo[d]imidazol-4-yl)-N1-(2-aminoethyl)-3-(2H-tetrazol-5-yl)benzene-1,2-disulfonamide] |  |  |  | 2.28 nM | 0.228 nM | 1.563 µM | 0.18 nM | 1.563 µM | 1.00 |  | 3.125 µM | 1.563 µM | 3.125 µM |  |  | 
Nc1ccc2cccc(-c3ccc(S(=O)(=O)N[C@H]4CNC[C@H]4N)c(S(N)(=O)=O)c3-c3nn[nH]n3)c2n1 [Example 324, N1-((3S,4R)-4-aminopyrrolidin-3-yl)-4-(2-aminoquinolin-8-yl)-3-(1H-tetrazol-5-yl)benzene-1,2-disulfonamide] |  |  |  | 0.213 nM | 0.0387 nM | 0.7813 µM |  | 0.7813 µM | 1.00 | 0.13 nM | 1.563 µM | 1.563 µM | 0.7813 µM |  |  | 
NCCNS(=O)(=O)c1ccc(-c2cccc(C(=O)NCC(O)CN)c2)c(-c2nn[nH]n2)c1S(N)(=O)=O (stereo in doubt) [Example 347, (S)—N-(3-amino-2-hydroxypropyl)-4′-(N-(2-aminoethyl)sulfamoyl)-3′-sulfamoyl-2′-(2H-tetrazol-5-yl)[1,1′-biphenyl]-3-carboxamide] |  |  |  | 3.97 nM | 2.04 nM | 1.563 µM | 0.536 nM | 0.7813 µM | 2.00 |  | 1.563 µM | 1.563 µM | 1.563 µM |  |  | 
NCCNS(=O)(=O)c1ccc(-c2cccc3[nH]c([C@@H]4C[C@@H](O)CN4)nc23)c(-c2nn[nH]n2)c1S(N)(=O)=O [Example 444, N1-(2-aminoethyl)-4-(2-((2S,4R)-4-hydroxypyrrolidin-2-yl)-1H-benzo[d]imidazol-4-yl)-3-(2H-tetrazol-5-yl)benzene-1,2-disulfonamide] |  |  |  | 1.59 nM | 0.236 nM |  | 0.235 nM |  |  |  | 3.125 µM | 1.563 µM | 3.125 µM | 1.563 | 1.563 | 1.00
